Data published in article PMC6941823, “A dispensable paralog of succinate dehydrogenase subunit C mediates standing resistance towards a subclass of SDHI fungicides in Zymoseptoria tritici” (PLoS Pathogens, 2019).
Where two headings read alike, the source gives them in different places.

Key:
[1] = target: altC-SQR (altC) of D024 SDHC1 KO mitochondria (Zymoseptoria tritici, UniProt A0A1X7RQW2+F9X9V6+O42772); test: Succinate-quinone (SQR) SDHI sensitivity assay on purified mitochondria, 06STD024 SDHC1 KO; assay type: biochemical; conditions: for RF (resistance factor), D024 SDHC1 KO (altC): IC50 ratio compared to IPO323 values; for IC50: mitochondria of 06STD024 ZtSDHC1 deletion mutant (pure altC-SQR), mean of three ± SD
Method: (§1) Succinate-ubiquinone oxidoreductase (SQR) inhibition assays were performed on mitochondrial extracts from a panel of strains that were (i) either carrying a unique C-subunit encoding gene (ZtSDHC1, ZtSDHC1_A84I or Zt-SDHC3), or (ii) carrying two C-subunit encoding genes ZtSDHC1 and ZtSDHC3 (Table 1).
(§2) Biomass production, mitochondrial extraction and purification were performed as described in [14]. Succinate: ubiquinone/DCPIP sensitivity tests were performed as described in [14] with minor modification.

[2] = target: C_A84I-SQR (SDHC_A84I), IPO323_Flu21 mitochondria (Zymoseptoria tritici, UniProt F9X9V6+F9XH52+O42772, A84I); test: Succinate-quinone (SQR) SDHI sensitivity assay on purified mitochondria, IPO323_Flu21; assay type: biochemical; conditions: for RF (resistance factor), IPO323_Flu21 (SDHC_A84I): IC50 ratio compared to IPO323 values; for IC50: mitochondria of UV mutant IPO323_Flu21, mean of three ± SD
Method: as §1
(§3) Biomass production, mitochondrial extraction and purification were performed as described in [14]. Succinate: ubiquinone/DCPIP sensitivity tests were performed as described in [14] with minor modification. The different mitochondrial suspensions were adjusted to similar initial velocity (1 OD595nm hour^-1) and inhibitor concentrations ranged between 0.047nM and 50μM with uniform 4x dilution steps (11 concentrations + DMSO control). Calculated absorbance slopes (OD/min) were used for IC50 calculations using GraphPad Prism 6.07 software non-linear curve fitting against log inhibitor concentrations.

[3] = test system: SQR (SDHC / altC) of IPO323 pTet::SDHC3 transformant, induced; test: Succinate-quinone (SQR) SDHI sensitivity assay on purified mitochondria, IPO323 pTet::SDHC3 induced; assay type: biochemical, Zymoseptoria tritici; conditions: for RF (resistance factor), pTet Induced (SDHC / altC): IC50 ratio compared to IPO323 values; for IC50: IPO323 pTet::SDHC3 transformant grown in the absence of doxycycline, mean of three ± SD
Method: as §1, §2

[4] = target: SQR (SDHC) of D024 SDHC3 KO mitochondria (Zymoseptoria tritici, UniProt F9X9V6+F9XH52+O42772); test: Succinate-quinone (SQR) SDHI sensitivity assay on purified mitochondria, 06STD024 SDHC3 KO; assay type: biochemical; conditions: for RF (resistance factor), D024 SDHC3 KO (SDHC): IC50 ratio compared to IPO323 values; for IC50: mitochondria of 06STD024 ZtSDHC3 deletion mutant, mean of three ± SD
Method: as §1, §3

[5] = target: SQR (SDHC / altC) of IPO323 pTet::SDHC3 transformant, repressed (Zymoseptoria tritici, UniProt A0A1X7RQW2+F9X9V6+F9XH52+O42772); test: Succinate-quinone (SQR) SDHI sensitivity assay on purified mitochondria, IPO323 pTet::SDHC3 repressed; assay type: biochemical; conditions: for RF (resistance factor), pTet Repressed (SDHC / altC): IC50 ratio compared to IPO323 values; for IC50: IPO323 pTet::SDHC3 transformant grown in presence of 30 mg.L^-1 doxycycline, mean of three ± SD
Method: as §1, §2

[6] = test system: Zymoseptoria tritici field and genetically modified strains; test: Liquid culture assay for fungicide sensitivity determination; assay type: cell-based; conditions: liquid culture sensitivity, read-out: EC50 (nM) Mean
Method: Sensitivity towards commercial fungicides was determined for a set of 99 SHA-SDHI-naïve Z. tritici field isolates sampled in Europe between 2006 and 2009. The EC50 of these isolates was determined in liquid growth assays and the data obtained compared for each possible pair of SDHI fungicides (cross-resistance (XR) plots, Fig 1). […] Comparative succinate-quinone reductase (SQR) enzyme inhibition tests were performed with mitochondria extracted from a panel of SHA-SDHIs tolerant and sensitive isolates.
In order to characterize in more depth the mechanisms driving sensitivity differences across the isolates, a subset of eight isolates carrying the ZtSDHC3 gene was analyzed for their sensitivity to SDHIs, alt-SDHC expression and splicing patterns. Liquid culture growth sensitivity tests were performed to determine EC50s for this set of isolates towards a wide range of commercial and research SDHIs (S5 Table).
Pre-culture of the inoculum and fungicide sensitivity tests were performed following previously described procedures. Different ranges of inhibitor concentrations were used for population monitoring and for the detailed phenotyping of a selected set of individual field isolates and genetically modified strains. For fungicide sensitivity monitoring of European field populations, final inhibitors concentrations were between 100 mg.L^-1 and 0.0001 mg.L^-1 with uniform 10x dilution steps (7 inhibitor concentrations + DMSO control). For refined sensitivity analysis of a smaller panel of isolates final inhibitor concentrations ranged between 0.5 mM and 0.47 nM with uniform 4x dilution factor steps (11 inhibitor concentrations+ DMSO control).

[7] = target: WT-SQR (SDHC), IPO323 mitochondria (Zymoseptoria tritici, UniProt F9X9V6+F9XH52+O42772); test: Succinate-quinone (SQR) SDHI sensitivity assay on purified mitochondria, IPO323; assay type: biochemical; conditions: mitochondria of IPO323; mean of three determinations ± SD; read-out: Succinate-quinone IC50, IPO323 (SDHC)
Method: as §1, §3

[8] = target: SQR of 06STD024 (SDHC / altC) mitochondria (Zymoseptoria tritici, UniProt A0A1X7RQW2+F9X9V6+F9XH52+O42772); test: Succinate-quinone (SQR) SDHI sensitivity assay on purified mitochondria, 06STD024; assay type: biochemical; conditions: for RF (resistance factor), 06STD024 (SDHC / altC): IC50 ratio compared to IPO323 values; for IC50: mitochondria of field isolate 06STD024, mean of three ± SD
Method: as §1, §2

SQR of 06STD024 (SDHC / altC) mitochondria, sequence (A0A1X7RQW2 36-181): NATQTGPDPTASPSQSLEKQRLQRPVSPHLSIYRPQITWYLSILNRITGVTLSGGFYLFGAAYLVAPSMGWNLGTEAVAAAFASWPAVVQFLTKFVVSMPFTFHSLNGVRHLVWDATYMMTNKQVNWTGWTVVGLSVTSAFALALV
SQR of 06STD024 (SDHC / altC) mitochondria, sequence (O42772 19-297): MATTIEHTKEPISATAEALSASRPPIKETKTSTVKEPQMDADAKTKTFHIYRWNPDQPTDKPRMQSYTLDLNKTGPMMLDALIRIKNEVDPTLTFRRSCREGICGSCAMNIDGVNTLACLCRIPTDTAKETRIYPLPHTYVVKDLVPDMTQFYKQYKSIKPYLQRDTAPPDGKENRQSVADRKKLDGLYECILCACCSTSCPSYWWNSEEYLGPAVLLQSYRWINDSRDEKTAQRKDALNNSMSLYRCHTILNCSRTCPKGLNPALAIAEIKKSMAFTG
SQR of 06STD024 (SDHC / altC) mitochondria, sequence (F9X9V6 1-193): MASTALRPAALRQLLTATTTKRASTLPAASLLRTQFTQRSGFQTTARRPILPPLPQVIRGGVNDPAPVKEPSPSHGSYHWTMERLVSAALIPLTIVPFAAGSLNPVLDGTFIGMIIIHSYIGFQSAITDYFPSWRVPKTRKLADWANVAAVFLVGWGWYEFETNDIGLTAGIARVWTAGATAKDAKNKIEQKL
SQR of 06STD024 (SDHC / altC) mitochondria, sequence (F9XH52 44-187): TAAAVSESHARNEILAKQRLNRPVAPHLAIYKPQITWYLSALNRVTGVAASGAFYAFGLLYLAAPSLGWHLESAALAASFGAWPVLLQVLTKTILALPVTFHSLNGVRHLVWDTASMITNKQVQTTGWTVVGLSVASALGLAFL
SQR of 06STD024 (SDHC / altC) mitochondria, sequence (F9WWR1 29-643 partner): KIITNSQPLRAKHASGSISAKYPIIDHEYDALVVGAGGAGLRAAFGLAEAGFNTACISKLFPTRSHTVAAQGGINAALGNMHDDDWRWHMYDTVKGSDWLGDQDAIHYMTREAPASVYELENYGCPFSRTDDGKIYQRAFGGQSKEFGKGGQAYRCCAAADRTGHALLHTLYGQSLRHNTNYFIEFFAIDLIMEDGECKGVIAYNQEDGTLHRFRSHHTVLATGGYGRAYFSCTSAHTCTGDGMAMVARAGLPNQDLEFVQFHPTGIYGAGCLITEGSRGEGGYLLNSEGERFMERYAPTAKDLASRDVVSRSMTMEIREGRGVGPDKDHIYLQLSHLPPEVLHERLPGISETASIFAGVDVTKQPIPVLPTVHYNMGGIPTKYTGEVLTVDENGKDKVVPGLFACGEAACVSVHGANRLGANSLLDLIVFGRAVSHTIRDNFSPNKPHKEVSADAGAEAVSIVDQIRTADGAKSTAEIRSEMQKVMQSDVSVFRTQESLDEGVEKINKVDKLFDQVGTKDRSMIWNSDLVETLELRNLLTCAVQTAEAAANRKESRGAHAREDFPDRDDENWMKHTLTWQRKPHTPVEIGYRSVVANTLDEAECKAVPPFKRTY
altC-SQR (altC) of D024 SDHC1 KO mitochondria, sequence (A0A1X7RQW2 36-181): as the sequence (A0A1X7RQW2 36-181) above
altC-SQR (altC) of D024 SDHC1 KO mitochondria, sequence (O42772 20-297): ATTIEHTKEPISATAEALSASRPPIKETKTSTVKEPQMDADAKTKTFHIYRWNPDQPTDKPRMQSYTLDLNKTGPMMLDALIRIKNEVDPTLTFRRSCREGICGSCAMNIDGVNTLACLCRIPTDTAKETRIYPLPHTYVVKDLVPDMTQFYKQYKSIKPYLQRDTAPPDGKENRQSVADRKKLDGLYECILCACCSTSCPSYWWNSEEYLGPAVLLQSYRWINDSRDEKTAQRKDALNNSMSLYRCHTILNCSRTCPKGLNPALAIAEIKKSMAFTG
altC-SQR (altC) of D024 SDHC1 KO mitochondria, sequence (F9X9V6 1-193): as the sequence (F9X9V6 1-193) above
altC-SQR (altC) of D024 SDHC1 KO mitochondria, sequence (F9WWR1 41-643 partner): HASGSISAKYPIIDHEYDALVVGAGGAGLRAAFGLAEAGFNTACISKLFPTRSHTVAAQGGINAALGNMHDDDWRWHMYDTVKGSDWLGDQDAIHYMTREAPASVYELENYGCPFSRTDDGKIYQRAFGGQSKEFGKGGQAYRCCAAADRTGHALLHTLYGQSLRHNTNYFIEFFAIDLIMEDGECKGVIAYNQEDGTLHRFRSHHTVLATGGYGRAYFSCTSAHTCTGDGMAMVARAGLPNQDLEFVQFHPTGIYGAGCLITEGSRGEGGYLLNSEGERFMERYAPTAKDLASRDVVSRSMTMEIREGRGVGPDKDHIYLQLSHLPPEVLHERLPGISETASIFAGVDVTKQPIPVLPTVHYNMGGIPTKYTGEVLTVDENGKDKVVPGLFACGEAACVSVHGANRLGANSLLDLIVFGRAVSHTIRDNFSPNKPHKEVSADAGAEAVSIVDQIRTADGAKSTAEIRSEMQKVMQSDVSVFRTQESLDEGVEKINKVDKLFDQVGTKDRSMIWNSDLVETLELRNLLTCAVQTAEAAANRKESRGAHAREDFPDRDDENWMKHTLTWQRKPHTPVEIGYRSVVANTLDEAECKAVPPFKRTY
SQR (SDHC / altC) of IPO323 pTet::SDHC3 transformant, repressed, sequence (F9XH52 44-187): as the sequence (F9XH52 44-187) above
SQR (SDHC / altC) of IPO323 pTet::SDHC3 transformant, repressed, sequence (O42772 20-297): as the sequence (O42772 20-297) above
SQR (SDHC / altC) of IPO323 pTet::SDHC3 transformant, repressed, sequence (F9X9V6 1-193): as the sequence (F9X9V6 1-193) above
SQR (SDHC / altC) of IPO323 pTet::SDHC3 transformant, repressed, sequence (A0A1X7RQW2 36-181): as the sequence (A0A1X7RQW2 36-181) above
SQR (SDHC / altC) of IPO323 pTet::SDHC3 transformant, repressed, sequence (F9WWR1 41-643 partner): as the sequence (F9WWR1 41-643 partner) above

SMILES | RF (resistance factor), D024 SDHC1 KO (altC) [1] | IC50 [1] [µM] | RF (resistance factor), IPO323_Flu21 (SDHC_A84I) [2] | IC50 [2] [µM] | RF (resistance factor), pTet Induced (SDHC / altC) [3] | IC50 [3] [µM] | RF (resistance factor), D024 SDHC3 KO (SDHC) [4] | IC50 [4] [µM] | RF (resistance factor), pTet Repressed (SDHC / altC) [5] | IC50 [5] [µM] | EC50 ([6]; strain 06STD024) [nM] | EC50 ([6]; strain 07STGB009) [nM] | EC50 ([6]; strain 09STD041) [nM] | EC50 ([6]; strain 09STD053) [nM] | EC50 ([6]; strain 09STF011) [nM] | EC50 ([6]; strain 09STF037) [nM] | EC50 ([6]; strain 09STF112) [nM] | EC50 ([6]; strain 09STIR20.3) [nM] | EC50 ([6]; strain Flu21 (SDHC1_A84I)) [nM] | EC50 ([6]; strain IPO323) [nM] | further results
Cn1cc(C(=O)Nc2ccc(F)cc2-c2ccc(Cl)c(Cl)c2)c(C(F)F)n1 [Bixafen] | 1.5 | 0.0021 ± 0.0006 | 2.3 | 0.0032 ± 0.0005 | 1.3 | 0.0018 ± 0.0004 | 1.0 | 0.0013 ± 0.0002 | 1.1 | 0.0015 ± 0.0006 | 83.8 | 102 | 219 | 102 | 70.1 | 111 | 171 | 204 | 959 | 106 | EC50 ([6]; strain IPO94269): 109 nM; EC50 ([6]; strain KO_SDHC1_T1): 710 nM; EC50 ([6]; strain KO_SDHC1_T3): 447 nM; EC50 ([6]; strain KO_SDHC3_T4): 204 nM; EC50 ([6]; strain KO_SDHC3_T13): 180 nM; EC50 ([6]; strain pTet::SDHC3_I78A_T1): 94.3 nM; EC50 ([6]; strain pTet::SDHC3_I78A_T5): 174 nM; EC50 ([6]; strain pTet::SDHC3_I78A_T15): 104 nM; EC50 ([6]; strain pTet::SDHC3_I78A_T35): 27.7 nM; EC50 ([6]; strain pTet::SDHC3_T1): 141 nM; EC50 ([6]; strain pTet::SDHC3_T2): 185 nM; EC50 ([6]; strain pTet::SDHC3_T3): 120 nM; EC50 ([6]; strain pTet::SDHC3_T7): 192 nM; IC50 [7]: 0.0014 ± 0.0001 µM; RF (resistance factor), 06STD024 (SDHC / altC) [8]: 1.3; IC50 [8]: 0.0018 ± 0.0007 µM
CC(C)C1C2CCC1c1c(NC(=O)c3cn(C)nc3C(F)F)cccc12 (stereo not drawn) [Isopyrazam] | 2.9 | 0.0024 ± 0.0005 | 6.4 | 0.0052 ± 0.0026 | 2.1 | 0.0017 ± 0.0004 | 0.7 | 0.0006 ± 0.0002 | 1.5 | 0.0012 ± 0.0003 | 108 | 75.5 | 116 | 56 | 109 | 46.1 | 66.2 | 112 | 785 | 46 | EC50 ([6]; strain IPO94269): 72.8 nM; EC50 ([6]; strain KO_SDHC1_T1): 332 nM; EC50 ([6]; strain KO_SDHC1_T3): 293 nM; EC50 ([6]; strain KO_SDHC3_T4): 83.7 nM; EC50 ([6]; strain KO_SDHC3_T13): 96.7 nM; EC50 ([6]; strain pTet::SDHC3_I78A_T1): 60.4 nM; EC50 ([6]; strain pTet::SDHC3_I78A_T5): 120 nM; EC50 ([6]; strain pTet::SDHC3_I78A_T15): 81.1 nM; EC50 ([6]; strain pTet::SDHC3_I78A_T35): 17 nM; EC50 ([6]; strain pTet::SDHC3_T1): 195 nM; EC50 ([6]; strain pTet::SDHC3_T2): 284 nM; EC50 ([6]; strain pTet::SDHC3_T3): 175 nM; EC50 ([6]; strain pTet::SDHC3_T7): 233 nM; IC50 [7]: 0.0008 ± 0.0001 µM; RF (resistance factor), 06STD024 (SDHC / altC) [8]: 3.3; IC50 [8]: 0.0026 ± 0.0006 µM
